Test results published in patent US20260256923A1, “NEW RECRUITMENT ELEMENT OF UBIQUITIN LIGASE AND USE THEREOF” (SHENZHEN LINGGENE BIOTECH CO., LTD., priority 2023, published 2026).

Experiments:
STAT3 = STAT3 (Homo sapiens, UniProt P40763); test: STAT3 protein degradation in HeLa cells, western blot; assay type: cell-based; parameters: endogenous in cells; host or cells: HeLa; details: 500 nM, 6 h
Procedure: HeLa cells were incubated with 500 nM said first PROTAC product 1411-S3-1 or second PROTAC product 1411-S3-2, and corresponding cell samples were collected at time gradients of 0 h, 2 h, 6 h, 12 h, 18 h, and 24 h for protein extraction and subsequent western blot assay.
HeLa cells were incubated with the first PROTAC product 1411-S3-1 or the second PROTAC product 1411-S3-2 at concentrations of 0 nM, 100 nM, 200 nM, 500 nM, and 1000 nM. After 6 h, cell samples were collected for protein extraction and subsequent western blot assay. […] The half-maximal degradation concentrations (DC50) of the first PROTAC product 1411-S3-1 and the second PROTAC product 1411-S3-2 against STAT3 at the protein level were 262.5 nM and 136.3 nM, respectively, as shown in FIG. 19.
HeLa cells were incubated with 500 nM double-stranded transcription factor decoy oligonucleotide S3, AS1411, the first PROTAC product 1411-S3-1, the second PROTAC product 1411-S3-2, or AS1411+double-stranded transcription factor decoy oligonucleotide S3. After 6 h, cell samples were collected for protein extraction and subsequent western blot assay.
HeLa cells were incubated with 500 nM said first PROTAC product 1411-S3-1 or second PROTAC product 1411-S3-2, and proteasome inhibitor MG132 was added. After 6 h, cell samples were collected for protein extraction and subsequent western blot assay. […]

MDM2 = MDM2 (Homo sapiens, UniProt Q00987); test: Biotin-oligonucleotide pull-down with recombinant proteins (MDM2); assay type: binding; parameters: purchased R&D Systems (MDM2); ACROBiosystems (NCL) E3-202-050 (MDM2); NUL-H5253 (NCL); details: 400 nM 5′-biotin label, 6 μg/mL NCL + 6 μg/mL MDM2
Procedure: 6 μg/mL recombinant human NCL and 6 μg/mL recombinant human MDM2 were mixed well and incubated at 4° C. for 7 h. Subsequently, 400 nM CRO, AS1411, or iSN04 labeled by biotin at the 5′ end was added, and the mixture was incubated at 4° C. for 6 h. Streptavidin agarose gel beads (purchased from cytiva, Cat. No.: 17511301) were added, and the mixture was further incubated at 4° C. overnight. The gel beads were washed 4 times with a TBST buffer, and an SDS-PAGE protein loading buffer (purchased from Beyotime, Cat. No.: P0015) was added. The mixture was heated to 100° C. and held for 10 min. After centrifugation, the supernatant was collected. The pull-down product was then detected by western blot assay.

[1] = G4 structural characteristics, N-methyl mesoporphyrin IX (NMM) fluorescent probe; assay type: physicochemical; details: 1 μM NMM
Procedure: Both AS1411 and iSN04 are oligonucleotides specifically binding to NCL. The sequence of AS1411 is SEQ ID NO: 1, and the sequence of iSN04 is SEQ ID NO: 14. AS1411 contains a plurality of GGT motifs, and iSN04 contains one GGT motif. Whether AS1411 and iSN04 have stable G4 structural characteristics was determined. The experimental process was as follows: 5 μM NC (negative control, SEQ ID NO: 15), AS1411, or iSN04 was added to water, and the total volume was 100 μL. The mixture was heated at 95° C. for 7 min and then immediately incubated on ice for 3 min, followed by the addition of 2 μL of N-methyl mesoporphyrin IX (NMM) (purchased from MCE, Cat. No.: HY-133821) to make a final concentration of 1 μM. The resulting mixture was incubated at room temperature for 1 h in the dark. The fluorescence intensity was detected by a microplate reader, with an emission wavelength of 550-700 nm and an excitation wavelength of […].
Guanine-rich DNA sequences can form more distinct G4 structural characteristics in the presence of metal ions (usually sodium and potassium ions). 5 μM NC (negative control, SEQ ID NO: 15), AS1411, or iSN04 was added to a 100 mM K^+ solution, and the total volume was 100 μL. The mixture was well mixed, heated at 95° C. for 7 min, and then immediately incubated on ice for 3 min, followed by the addition of 2 μL of N-methyl mesoporphyrin IX (NMM) (purchased from MCE, Cat. No.: HY-133821) to make a final concentration of 1 μM. The resulting mixture was incubated at room temperature for 1 h in the dark. The fluorescence intensity was detected by a microplate reader, with an emission wavelength of 550-700 nm and an excitation wavelength of […].

MDM2, sequence (P19338 whole entry partner): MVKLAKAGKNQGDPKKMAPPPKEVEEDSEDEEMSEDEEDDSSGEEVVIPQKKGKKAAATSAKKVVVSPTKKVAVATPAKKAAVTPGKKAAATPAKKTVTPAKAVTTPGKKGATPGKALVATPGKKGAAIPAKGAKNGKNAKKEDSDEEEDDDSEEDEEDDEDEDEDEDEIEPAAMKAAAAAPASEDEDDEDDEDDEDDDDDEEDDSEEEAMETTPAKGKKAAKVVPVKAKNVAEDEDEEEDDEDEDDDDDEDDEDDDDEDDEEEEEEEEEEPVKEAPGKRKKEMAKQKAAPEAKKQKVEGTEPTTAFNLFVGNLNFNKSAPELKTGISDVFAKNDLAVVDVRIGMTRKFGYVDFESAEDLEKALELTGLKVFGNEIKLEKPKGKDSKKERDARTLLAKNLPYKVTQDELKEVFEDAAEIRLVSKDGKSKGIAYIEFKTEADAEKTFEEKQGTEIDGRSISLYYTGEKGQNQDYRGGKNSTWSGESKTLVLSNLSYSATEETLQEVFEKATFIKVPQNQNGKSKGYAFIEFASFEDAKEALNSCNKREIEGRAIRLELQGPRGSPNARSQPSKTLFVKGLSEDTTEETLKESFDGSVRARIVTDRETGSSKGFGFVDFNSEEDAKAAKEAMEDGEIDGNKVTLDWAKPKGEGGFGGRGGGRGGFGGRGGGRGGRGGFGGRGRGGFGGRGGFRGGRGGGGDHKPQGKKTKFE
MDM2, sequence (Q00987 whole entry): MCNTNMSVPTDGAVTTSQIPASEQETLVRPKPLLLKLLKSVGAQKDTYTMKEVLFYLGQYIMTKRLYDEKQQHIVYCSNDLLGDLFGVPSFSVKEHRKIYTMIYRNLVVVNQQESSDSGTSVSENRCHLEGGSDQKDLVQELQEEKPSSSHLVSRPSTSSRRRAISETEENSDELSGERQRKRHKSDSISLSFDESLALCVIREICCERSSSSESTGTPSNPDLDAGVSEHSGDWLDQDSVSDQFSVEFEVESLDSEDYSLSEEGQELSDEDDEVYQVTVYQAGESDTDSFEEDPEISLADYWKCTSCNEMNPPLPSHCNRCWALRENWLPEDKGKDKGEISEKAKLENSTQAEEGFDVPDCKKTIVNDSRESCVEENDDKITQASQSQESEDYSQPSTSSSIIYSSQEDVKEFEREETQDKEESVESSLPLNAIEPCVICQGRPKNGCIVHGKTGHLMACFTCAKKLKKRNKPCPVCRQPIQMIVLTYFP
STAT3, sequence (P40763 whole entry): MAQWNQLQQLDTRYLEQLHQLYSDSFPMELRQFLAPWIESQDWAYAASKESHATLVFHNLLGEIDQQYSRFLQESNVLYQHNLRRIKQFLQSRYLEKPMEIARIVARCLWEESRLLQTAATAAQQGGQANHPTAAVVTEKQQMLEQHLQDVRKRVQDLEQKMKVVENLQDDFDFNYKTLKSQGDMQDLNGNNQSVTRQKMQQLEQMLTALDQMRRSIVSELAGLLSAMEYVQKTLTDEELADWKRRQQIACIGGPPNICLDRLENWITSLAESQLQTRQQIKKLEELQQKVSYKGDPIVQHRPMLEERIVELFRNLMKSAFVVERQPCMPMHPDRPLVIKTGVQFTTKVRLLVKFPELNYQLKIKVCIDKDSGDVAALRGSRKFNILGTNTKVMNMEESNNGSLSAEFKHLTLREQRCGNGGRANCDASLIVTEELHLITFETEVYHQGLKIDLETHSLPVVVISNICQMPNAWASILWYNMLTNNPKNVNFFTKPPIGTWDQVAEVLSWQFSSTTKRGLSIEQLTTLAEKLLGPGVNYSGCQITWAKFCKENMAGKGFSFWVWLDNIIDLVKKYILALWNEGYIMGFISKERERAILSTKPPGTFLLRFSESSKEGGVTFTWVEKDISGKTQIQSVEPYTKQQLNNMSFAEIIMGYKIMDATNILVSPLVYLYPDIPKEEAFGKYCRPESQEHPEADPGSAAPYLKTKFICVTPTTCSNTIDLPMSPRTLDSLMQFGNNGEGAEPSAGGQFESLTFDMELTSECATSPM

AS1411: DNA aptamer, GRO binding NCL, SEQ ID NO: 1: 5′-GGTGGTGGTGGTTGTGGTGGTGGTGG-3′
protein level of STAT3 (STAT3): only the first PROTAC product 1411-S3-1 and the second PROTAC product 1411-S3-2 can reduce the protein level of transcription factor STAT3
binding / recruitment of MDM2 (MDM2): recruits MDM2 in large amounts depending on its interaction with NCL
G4 structural characteristics (fluorescence signal intensity) ([1]; 5 μM in 100 mM K+ solution): over 10000
G4 structural characteristics (fluorescence signal intensity) ([1]; 5 μM in water (no K+)): over 4000
